{"source": "patent US20180050993A1", "about": "“NOVEL FLUORINATED DERIVATIVES AS EGFR INHIBITORS USEFUL FOR TREATING CANCERS” (Trillium Therapeutics Inc., priority 2015, published 2018)", "system": "HCC827", "test": "Comparison with 1st generation inhibitors against a lung cancer cell line (HCC827)", "assay_type": "cell-based", "conditions": "Homo sapiens, read-out: Biochemical IC50", "note": "Structures can show the parent of a compound that is named as a salt.", "data": [{"smiles": "Fc1ccc(Nc2ncnc3cc(OCCOC(F)F)c(OCCOC(F)F)cc23)c(F)c1Cl", "note": "[Compound 2D•HCl, N-(3-chloro-2,4-difluoro-phenyl)-6,7-bis[2-(difluoromethoxy)ethoxy]quinazolin-4-amine]", "values": [{"measurement": "IC50", "result": 17, "unit": "nM"}]}]}
